{"source": "patent US8192962B2", "about": "“Processes for detecting toxic substances” (Daikin Industries, Ltd., priority 2001, dated 2012)", "tested_on": "Unknown protein yeast genes", "assay": "DNA chip mRNA expression in yeast, unknown protein yeast genes (Table 1)", "format": "cell-based, Saccharomyces cerevisiae S288C", "procedure,_shortened": "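Whole-genome yeast DNA chip hybridization (65° C., >12 h) of Cy-labeled cDNA from S288C cells exposed 2 h at 25° C. to a sub-lethal toxicant dose in YPD; value is intensity relative to chemical-free control.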"}
{"smiles": "S=C([S-])NCCNC(=S)[S-].[Zn+2]", "note": "[(11), zinc N,N′-ethylenebis(dithiocarbamate)]", "values": [{"measurement": "The level of expressed mRNA in the presence of chemical substance/The level of expressed mRNA in the absence of chemical substance", "setting": "yeast gene YKL153W, incubated two hours with chemical substance", "result": 2.1}, {"measurement": "The level of expressed mRNA in the presence of chemical substance/The level of expressed mRNA in the absence of chemical substance", "setting": "yeast gene YKL195W, incubated two hours with chemical substance", "result": 1.0}, {"measurement": "The level of expressed mRNA in the presence of chemical substance/The level of expressed mRNA in the absence of chemical substance", "setting": "yeast gene YKR033C", "result": 0.3}, {"measurement": "The level of expressed mRNA in the presence of chemical substance/The level of expressed mRNA in the absence of chemical substance", "setting": "yeast gene YKR091W, incubated two hours with chemical substance", "result": 1.1}, {"measurement": "The level of expressed mRNA in the presence of chemical substance/The level of expressed mRNA in the absence of chemical substance", "setting": "yeast gene YLR054C, incubated two hours with chemical substance", "result": 0.7}, {"measurement": "The level of expressed mRNA in the presence of chemical substance/The level of expressed mRNA in the absence of chemical substance", "setting": "yeast gene YLR149C, incubated two hours with chemical substance", "result": 2.8}, {"measurement": "The level of expressed mRNA in the presence of chemical substance/The level of expressed mRNA in the absence of chemical substance", "setting": "yeast gene YLR152C, incubated two hours with chemical substance", "result": 3.6}, {"measurement": "The level of expressed mRNA in the presence of chemical substance/The level of expressed mRNA in the absence of chemical substance", "setting": "yeast gene YLR194C, incubated two hours with chemical substance", "result": 1.4}, {"measurement": "The level of expressed mRNA in the presence of chemical substance/The level of expressed mRNA in the absence of chemical substance", "setting": "yeast gene YLR324W, incubated two hours with chemical substance", "result": 0.9}, {"measurement": "The level of expressed mRNA in the presence of chemical substance/The level of expressed mRNA in the absence of chemical substance", "setting": "yeast gene YLR350W, incubated two hours with chemical substance", "result": 0.9}, {"measurement": "The level of expressed mRNA in the presence of chemical substance/The level of expressed mRNA in the absence of chemical substance", "setting": "yeast gene YLR387C, incubated two hours with chemical substance", "result": 0.9}, {"measurement": "The level of expressed mRNA in the presence of chemical substance/The level of expressed mRNA in the absence of chemical substance", "setting": "yeast gene YLR460C", "result": 14.3}, {"measurement": "The level of expressed mRNA in the presence of chemical substance/The level of expressed mRNA in the absence of chemical substance", "setting": "yeast gene YML117W, incubated two hours with chemical substance", "result": 0.8}, {"measurement": "The level of expressed mRNA in the presence of chemical substance/The level of expressed mRNA in the absence of chemical substance", "setting": "yeast gene YMR009W, incubated two hours with chemical substance", "result": 2.1}, {"measurement": "The level of expressed mRNA in the presence of chemical substance/The level of expressed mRNA in the absence of chemical substance", "setting": "yeast gene YMR067C, incubated two hours with chemical substance", "result": 1.1}, {"measurement": "The level of expressed mRNA in the presence of chemical substance/The level of expressed mRNA in the absence of chemical substance", "setting": "yeast gene YMR090W", "result": 8.8}, {"measurement": "The level of expressed mRNA in the presence of chemical substance/The level of expressed mRNA in the absence of chemical substance", "setting": "yeast gene YMR095C, incubated two hours with chemical substance", "result": 2.1}, {"measurement": "The level of expressed mRNA in the presence of chemical substance/The level of expressed mRNA in the absence of chemical substance", "setting": "yeast gene YMR097C, incubated two hours with chemical substance", "result": 1.5}, {"measurement": "The level of expressed mRNA in the presence of chemical substance/The level of expressed mRNA in the absence of chemical substance", "setting": "yeast gene YMR102C, incubated two hours with chemical substance", "result": 1.5}, {"measurement": "The level of expressed mRNA in the presence of chemical substance/The level of expressed mRNA in the absence of chemical substance", "setting": "yeast gene YMR107W, incubated two hours with chemical substance", "result": 3.0}, {"measurement": "The level of expressed mRNA in the presence of chemical substance/The level of expressed mRNA in the absence of chemical substance", "setting": "yeast gene YMR180C, incubated two hours with chemical substance", "result": 0.7}, {"measurement": "The level of expressed mRNA in the presence of chemical substance/The level of expressed mRNA in the absence of chemical substance", "setting": "yeast gene YMR184W, incubated two hours with chemical substance", "result": 1.5}, {"measurement": "The level of expressed mRNA in the presence of chemical substance/The level of expressed mRNA in the absence of chemical substance", "setting": "yeast gene YMR191W, incubated two hours with chemical substance", "result": 2.3}, {"measurement": "The level of expressed mRNA in the presence of chemical substance/The level of expressed mRNA in the absence of chemical substance", "setting": "yeast gene YMR295C, incubated two hours with chemical substance", "result": 1.2}, {"measurement": "The level of expressed mRNA in the presence of chemical substance/The level of expressed mRNA in the absence of chemical substance", "setting": "yeast gene YMR316W, incubated two hours with chemical substance", "result": 1.5}, {"measurement": "The level of expressed mRNA in the presence of chemical substance/The level of expressed mRNA in the absence of chemical substance", "setting": "yeast gene YNL044W, incubated two hours with chemical substance", "result": 1.1}, {"measurement": "The level of expressed mRNA in the presence of chemical substance/The level of expressed mRNA in the absence of chemical substance", "setting": "yeast gene YNL074C, incubated two hours with chemical substance", "result": 1.3}, {"measurement": "The level of expressed mRNA in the presence of chemical substance/The level of expressed mRNA in the absence of chemical substance", "setting": "yeast gene YNL092W, incubated two hours with chemical substance", "result": 0.7}, {"measurement": "The level of expressed mRNA in the presence of chemical substance/The level of expressed mRNA in the absence of chemical substance", "setting": "yeast gene YNL115C, incubated two hours with chemical substance", "result": 1.1}, {"measurement": "The level of expressed mRNA in the presence of chemical substance/The level of expressed mRNA in the absence of chemical substance", "setting": "yeast gene YNL156C, incubated two hours with chemical substance", "result": 1.4}, {"measurement": "The level of expressed mRNA in the presence of chemical substance/The level of expressed mRNA in the absence of chemical substance", "setting": "yeast gene YNL234W, incubated two hours with chemical substance", "result": 1.3}, {"measurement": "The level of expressed mRNA in the presence of chemical substance/The level of expressed mRNA in the absence of chemical substance", "setting": "yeast gene YNL281W, incubated two hours with chemical substance", "result": 1.6}, {"measurement": "The level of expressed mRNA in the presence of chemical substance/The level of expressed mRNA in the absence of chemical substance", "setting": "yeast gene YNL305C, incubated two hours with chemical substance", "result": 1.8}, {"measurement": "The level of expressed mRNA in the presence of chemical substance/The level of expressed mRNA in the absence of chemical substance", "setting": "yeast gene YNR068C, incubated two hours with chemical substance", "result": 1.1}, {"measurement": "The level of expressed mRNA in the presence of chemical substance/The level of expressed mRNA in the absence of chemical substance", "setting": "yeast gene YOL032W, incubated two hours with chemical substance", "result": 1.4}, {"measurement": "The level of expressed mRNA in the presence of chemical substance/The level of expressed mRNA in the absence of chemical substance", "setting": "yeast gene YOL036W, incubated two hours with chemical substance", "result": 2.2}, {"measurement": "The level of expressed mRNA in the presence of chemical substance/The level of expressed mRNA in the absence of chemical substance", "setting": "yeast gene YOL047C, incubated two hours with chemical substance", "result": 0.9}, {"measurement": "The level of expressed mRNA in the presence of chemical substance/The level of expressed mRNA in the absence of chemical substance", "setting": "yeast gene YOL071W, incubated two hours with chemical substance", "result": 4.3}, {"measurement": "The level of expressed mRNA in the presence of chemical substance/The level of expressed mRNA in the absence of chemical substance", "setting": "yeast gene YOL082W, incubated two hours with chemical substance", "result": 1.6}, {"measurement": "The level of expressed mRNA in the presence of chemical substance/The level of expressed mRNA in the absence of chemical substance", "setting": "yeast gene YOL083W, incubated two hours with chemical substance", "result": 1.3}, {"measurement": "The level of expressed mRNA in the presence of chemical substance/The level of expressed mRNA in the absence of chemical substance", "setting": "yeast gene YOL117W, incubated two hours with chemical substance", "result": 1.0}, {"measurement": "The level of expressed mRNA in the presence of chemical substance/The level of expressed mRNA in the absence of chemical substance", "setting": "yeast gene YOL131W, incubated two hours with chemical substance", "result": 1.4}, {"measurement": "The level of expressed mRNA in the presence of chemical substance/The level of expressed mRNA in the absence of chemical substance", "setting": "yeast gene YOL150C", "result": 9.4}, {"measurement": "The level of expressed mRNA in the presence of chemical substance/The level of expressed mRNA in the absence of chemical substance", "setting": "yeast gene YOL162W, incubated two hours with chemical substance", "result": 4.3}, {"measurement": "The level of expressed mRNA in the presence of chemical substance/The level of expressed mRNA in the absence of chemical substance", "setting": "yeast gene YOR019W, incubated two hours with chemical substance", "result": 1.7}, {"measurement": "The level of expressed mRNA in the presence of chemical substance/The level of expressed mRNA in the absence of chemical substance", "setting": "yeast gene YOR197W, incubated two hours with chemical substance", "result": 1.0}, {"measurement": "The level of expressed mRNA in the presence of chemical substance/The level of expressed mRNA in the absence of chemical substance", "setting": "yeast gene YPL087W, incubated two hours with chemical substance", "result": 2.5}, {"measurement": "The level of expressed mRNA in the presence of chemical substance/The level of expressed mRNA in the absence of chemical substance", "setting": "yeast gene YPL196W, incubated two hours with chemical substance", "result": 1.7}, {"measurement": "The level of expressed mRNA in the presence of chemical substance/The level of expressed mRNA in the absence of chemical substance", "setting": "yeast gene YPL206C, incubated two hours with chemical substance", "result": 1.5}, {"measurement": "The level of expressed mRNA in the presence of chemical substance/The level of expressed mRNA in the absence of chemical substance", "setting": "yeast gene YPL222W, incubated two hours with chemical substance", "result": 1.2}, {"measurement": "The level of expressed mRNA in the presence of chemical substance/The level of expressed mRNA in the absence of chemical substance", "setting": "yeast gene YPR023C, incubated two hours with chemical substance", "result": 1.7}, {"measurement": "The level of expressed mRNA in the presence of chemical substance/The level of expressed mRNA in the absence of chemical substance", "setting": "yeast gene YPR151C, incubated two hours with chemical substance", "result": 1.4}]}
